Test [1] deals with PBMC or CD34+ cells from healthy donors. Put plainly: CFU assay, healthy controls. It is filed as cell-based, human. The method, then:
(§1) With the aid of the CFU assay, it is possible to determine the colony-forming capacity of individual cells in a semisolid methylcellulose medium (MethoCult H4434, StemCell Technologies, Cologne, Germany). The number of colonies was determined after 7-11 days.
CD34+ cells (G-CSF mobilized from stem cell donors) from healthy donors: 2×10^4 cells/ml; PBMCs from the healthy subjects: 4×10^5 cells/ml.
For this purpose, mononuclear cells (PBMC: mononuclear cells from peripheral blood) or CD34-positive stem cells (CD34+ cells) were isolated from the blood of four healthy controls and three AML or MPN patients and introduced into semisolid medium, to each of which 1 μM or 5 μM of MFS-2 or PFI-1 have been added. Individual cells in the CFU assay form cell colonies in culture after 12 days, unless the formation thereof is prevented by inhibitors.

Test [2] concerns erythroleukaemia cell line HEL (JAK2V617F-positive). The test can be described thus: MTT assay, metabolic activity of HEL cells. It is filed as cell-based. To be noted: 1 μM, 72 h, DMSO control set to 100%. The method, then:
All studies with the HEL, Molm-14 and K562 cell lines mentioned (sourced from DSMZ: ACC-11, ACC-10 and ACC-777) were conducted under germ-free conditions under a sterile hood. Incubation was effected at 37° C. in an incubator at a CO2 saturation of 5%. For the passage of the suspension cells, the cells were transferred in a Falcon prefilled with PBS (phosphate buffered saline) and centrifuged at 1200 rpm for 5 min. All three cell lines were cultured in RPMI-1640 medium (Gibco, Thermo Fischer Scientific, Darmstadt, Germany) with 10% FCS and 1% penicillin streptomycin.
The viability and metabolic activity of the cells were measured by the MTT assay. Yellow, water-soluble MTT (3-([…])-2,5-diphenyltetrazolium bromide) is a tetrazolium salt which is reduced to dark blue formazan in living cells. Insoluble formazan is released by addition of isopropanol-HCl, and its intensity can be determined by photometry at a wavelength of 550 nm. Thus, the proportion of living cells is measured by comparison with a particular control sample. The cells were counted and washed with PBS, and 30 000 cells per well were sown in triplicates in a 96-well plate. For the inhibitor treatment, the stated final concentrations were used. For this purpose, 10 µl of the appropriate inhibitor dilution was introduced into the 96-well plates, and then 90 μl of cell suspension was pipetted in. The plates were incubated in an incubator for 72 h (37° C., 5% CO2). After the incubation, 10 μl of MTT solution (5 mg/ml) was applied to the wells with a multichannel pipette and thoroughly resuspended. This was followed by incubation for 4 h in the dark at room temperature. Subsequently, the cells were resuspended in 100 μl of isopropanol-HCl and lysed, and absorption at a wavelength of 550 nm was measured by photometry with a plate reader (Kayto, RT-2100C).
The erythroleukaemia cell line HEL (JAK2V617F-positive), the AML cell line Molm-14 and the chronic myeloid leukaemia (CML) cell line K562 (BCR-ABL-positive) were used for cell experiments.
Compounds MF1-R, MF1-S, JHS1-R and JHS1-S were dissolved in DMSO, and each was used in concentrations of 0.1 μM, 1 μM, 10 μM and 20 μM. Correspondingly, DMSO was included in each case as a control treatment, and the metabolic activity thereof was set to 100%. The HEL, Molm-14 and K562 cell lines were treated with the respective compounds in the different concentrations and, after 72 h in culture, the metabolic activity, which gives information about the growth of the cells, was determined by means of MTT [3-(4,5-dimethylthiazol-2-yl)-2,5-diphenyltetrazolium bromide] assay.
Background: Tetrazolium assays rely on reduction of a dye to a coloured formazan, in cell work by metabolically active cells.

Test [3] relates to mononuclear cells from AML patients. Put plainly: CFU assay, AML patients. It is filed as cell-based, human. The protocol:
as §1
Mononuclear cells from the bone marrow from AML patients: 7×10^5 cells/ml
Vital sterile mononuclear bone marrow cells from AML patients were cultured for 24 h in 1.5 ml of BIT Medium in 8.5 ml of IMDM medium (to which had been added 5 μl of FLT3 ligand, 10 μl of rh SCF, 2 μl of rh IL-3, 2 μl of rh G-CSF, 50 μl of ciprofloxacin and 6.99 μl of β-mercaptoethanol in 1:100 dilution), before they were used in the CFU assay.
Individual cells in the CFU assay form cell colonies in culture after 12 days, unless the formation thereof is prevented by inhibitors.

Consider `CN1Cc2cc(N=[S@@](C)(=O)c3ccccc3)ccc2NC1=O` [MF2-S, (S)—N-(3-methyl-2-oxo-1,2,3,4-tetrahydroquinazolin-6-yl)-S-methyl-S-phenylsulfoximine], for which, in test [1] (1 μM), the “colony count, healthy CD34+ controls 3 and 4” value was “reduced the colony count of the controls to a lesser degree”; the “colony count, healthy control 4” value was “not significantly reduced”. In test [1] (5 μM), the “colony count, healthy controls 1 (PBMC) and 2 (CD34+ cells)” value is reported as “likewise reduced the amount of colonies”. Also, in test [2], the “metabolic activity of HEL cells” value is on record as 37.24%±6.19. The “colony count, AML patients, 1 μM versus 5 μM PFI-1” value in test [3] (1 μM) was “just as efficient as 5 μM PFI-1”. Further, the “colony count, AML patients” value in test [3] (1 μM and 5 μM, compared to PFI-1 at same concentration) is recorded as “reduced the colony count to a significantly greater degree than PFI-1”.

These data come from US12503446B2, “Bromodomain inhibitors” (FORSCHUNGSZENTRUM JÜLICH GMBH, priority 2019, dated 2025).
